According to ChEMBL document CHEMBL3885861, “Open TG-GATES”:

Species: Rattus norvegicus
Test: Open TG-GATES - Regimen: Daily Repeat
Assay type: toxicity, organism-based, Sprague-Dawley
Design: regimen Daily Repeat, gender Male, age 6 weeks
Details: in vivo, po, route gavage; for APTT / Bas / Eos / Fbg / Hb / Ht / Lym / MCH / MCHC / MCV / Mono / Neu / PT / Plat / RBC / Ret / WBC: tissue Blood; for KIDNEY_L / KIDNEY_R / KIDNEY_TOTAL: tissue Kidney; for LIVER: tissue Liver; for A/G / ALP / ALT / AST / BUN / CRE / Ca / Cl / DBIL / GLC / IP / K / LDH / Na / PL / RALB / TBIL / TC / TG / TP / gamma-GTP: tissue Plasma
[1] = 0 mg/kg, 72 h, dose level Control, time 3 day
[2] = 0 mg/kg, […], dose level Control, time 7 day
[3] = 0 mg/kg, […], dose level Control, time 14 day
[4] = 0 mg/kg, […], dose level Control, time 28 day
[5] = 3 mg/kg, 72 h, dose level Low, time 3 day
[6] = 3 mg/kg, […], dose level Low, time 7 day
[7] = 3 mg/kg, […], dose level Low, time 14 day
[8] = 3 mg/kg, […], dose level Low, time 28 day

Compound: C[C@H]1C(=O)O[C@@H]2CCN3CC=C(COC(=O)[C@](C)(O)[C@]1(C)O)[C@H]23 [MONOCROTALINE]
- TERMINAL_BW [1]: 230.9 g
- APTT [1]: 21.2 s
- Bas [1]: 0%
- Eos [1]: 0.6%
- Fbg [1]: 311.8 mg/dL
- Hb [1]: 13.5 g/dL
- Ht [1]: 39.5%
- Lym [1]: 83.8%
- MCH [1]: 21.5 pg
- MCHC [1]: 34.3%
- MCV [1]: 62.6 fL
- Mono [1]: 2%
- Neu [1]: 12.4%
- PT [1]: 15.8 s
- Plat [1]: 119.6 x10_4/uL
- RBC [1]: 631.2 x10_4/ul
- Ret [1]: 6.9%
- WBC [1]: 91.2 x10_2/uL
- KIDNEY_L [1]: 1 g
- KIDNEY_R [1]: 1 g
- KIDNEY_TOTAL [1]: 2.1 g
- LIVER [1]: 11 g
- A/G [1]: 1.2
- ALP [1]: 1771.6 IU/L
- ALT [1]: 40.2 IU/L
- AST [1]: 70 IU/L
- BUN [1]: 18.2 mg/dL
- CRE [1]: 0.2 mg/dL
- Ca [1]: 10.6 mg/dL
- Cl [1]: 105.6 meq/L
- DBIL [1]: 0.004 mg/dL
- GLC [1]: 191.4 mg/dL
- IP [1]: 6.9 mg/dL
- K [1]: 4.6 meq/L
- LDH [1]: 222.4 IU/L
- Na [1]: 142.2 meq/L
- PL [1]: 164 mg/dL
- RALB [1]: 3.1 g/dL
- TBIL [1]: 0.008 mg/dL
- TC [1]: 83.8 mg/dL
- TG [1]: 119 mg/dL
- TP [1]: 5.6 g/dL
- gamma-GTP [1]: 1.2 IU/L
- TERMINAL_BW [2]: 267 g
- TERMINAL_BW [3]: 315.5 g
- TERMINAL_BW [4]: 368.8 g
- APTT [2]: 21 s
- Bas [2]: 0%
- Eos [2]: 0.8%
- Fbg [2]: 309.8 mg/dL
- Hb [2]: 13.3 g/dL
- Ht [2]: 38.4%
- Lym [2]: 80.6%
- MCH [2]: 20.8 pg
- MCHC [2]: 34.7%
- MCV [2]: 60.2 fL
- Mono [2]: 2.6%
- Neu [2]: 15.2%
- PT [2]: 16.6 s
- Plat [2]: 111.7 x10_4/uL
- RBC [2]: 638.2 x10_4/ul
- Ret [2]: 6.1%
- WBC [2]: 108.8 x10_2/uL
- APTT [3]: 20.5 s
- Bas [3]: 0%
- Eos [3]: 1%
- Fbg [3]: 323.2 mg/dL
- Hb [3]: 14.1 g/dL
- Ht [3]: 39.6%
- Lym [3]: 78.4%
- MCH [3]: 20.7 pg
- MCHC [3]: 35.6%
- MCV [3]: 58.1 fL
- Mono [3]: 2.8%
- Neu [3]: 16.8%
- PT [3]: 16.7 s
- Plat [3]: 104.7 x10_4/uL
- RBC [3]: 681.6 x10_4/ul
- Ret [3]: 4.5%
- WBC [3]: 124 x10_2/uL
- APTT [4]: 22.4 s
- Bas [4]: 0%
- Eos [4]: 1.2%
- Fbg [4]: 314.2 mg/dL
- Hb [4]: 14.7 g/dL
- Ht [4]: 40.6%
- Lym [4]: 82.2%
- MCH [4]: 19.7 pg
- MCHC [4]: 36.1%
- MCV [4]: 54.6 fL
- Mono [4]: 2%
- Neu [4]: 13.6%
- PT [4]: 16 s
- Plat [4]: 102 x10_4/uL
- RBC [4]: 744.4 x10_4/ul
- Ret [4]: 2.6%
- WBC [4]: 110.5 x10_2/uL
- KIDNEY_L [2]: 1.1 g
- KIDNEY_R [2]: 1.1 g
- KIDNEY_TOTAL [2]: 2.2 g
- KIDNEY_L [3]: 1.3 g
- KIDNEY_R [3]: 1.3 g
- KIDNEY_TOTAL [3]: 2.5 g
- KIDNEY_L [4]: 1.3 g
- KIDNEY_R [4]: 1.4 g
- KIDNEY_TOTAL [4]: 2.7 g
- LIVER [2]: 12.7 g
- LIVER [3]: 13.3 g
- LIVER [4]: 14.7 g
- A/G [2]: 1.2
- ALP [2]: 1469.6 IU/L
- ALT [2]: 37.8 IU/L
- AST [2]: 65 IU/L
- BUN [2]: 18 mg/dL
- CRE [2]: 0.2 mg/dL
- Ca [2]: 10.7 mg/dL
- Cl [2]: 105.4 meq/L
- DBIL [2]: 0 mg/dL
- GLC [2]: 187 mg/dL
- IP [2]: 7 mg/dL
- K [2]: 4.3 meq/L
- LDH [2]: 182.2 IU/L
- Na [2]: 142.4 meq/L
- PL [2]: 156.2 mg/dL
- RALB [2]: 3.1 g/dL
- TBIL [2]: 0.002 mg/dL
- TC [2]: 79.6 mg/dL
- TG [2]: 111 mg/dL
- TP [2]: 5.6 g/dL
- gamma-GTP [2]: 1 IU/L
- A/G [3]: 1.2
- ALP [3]: 1565.6 IU/L
- ALT [3]: 36 IU/L
- AST [3]: 68.6 IU/L
- BUN [3]: 19.4 mg/dL
- CRE [3]: 0.2 mg/dL
- Ca [3]: 10.8 mg/dL
- Cl [3]: 105.6 meq/L
- DBIL [3]: 0.002 mg/dL
- GLC [3]: 194 mg/dL
- IP [3]: 6.6 mg/dL
- K [3]: 4.3 meq/L
- LDH [3]: 217 IU/L
- Na [3]: 142.4 meq/L
- PL [3]: 144 mg/dL
- RALB [3]: 3.2 g/dL
- TBIL [3]: 0 mg/dL
- TC [3]: 66.6 mg/dL
- TG [3]: 148 mg/dL
- TP [3]: 5.9 g/dL
- gamma-GTP [3]: 1.6 IU/L
- A/G [4]: 1.1
- ALP [4]: 1093.2 IU/L
- ALT [4]: 53 IU/L
- AST [4]: 79.6 IU/L
- BUN [4]: 18.8 mg/dL
- CRE [4]: 0.2 mg/dL
- Ca [4]: 10.6 mg/dL
- Cl [4]: 106.8 meq/L
- DBIL [4]: 0 mg/dL
- GLC [4]: 190.2 mg/dL
- IP [4]: 6.3 mg/dL
- K [4]: 4.1 meq/L
- LDH [4]: 176.4 IU/L
- Na [4]: 141.8 meq/L
- PL [4]: 152.6 mg/dL
- RALB [4]: 3.2 g/dL
- TBIL [4]: 0.01 mg/dL
- TC [4]: 74 mg/dL
- TG [4]: 160.4 mg/dL
- TP [4]: 6 g/dL
- gamma-GTP [4]: 1 IU/L
- TERMINAL_BW [5]: 234.1 g
- APTT [5]: 21.2 s
- Bas [5]: 0%
- Eos [5]: 0.8%
- Fbg [5]: 311.8 mg/dL
- Hb [5]: 13.5 g/dL
- Ht [5]: 39.5%
- Lym [5]: 80.2%
- MCH [5]: 20.8 pg
- MCHC [5]: 34%
- MCV [5]: 61.2 fL
- Mono [5]: 2%
- Neu [5]: 16.2%
- PT [5]: 15.9 s
- Plat [5]: 130.1 x10_4/uL
- RBC [5]: 646.2 x10_4/ul
- Ret [5]: 7.1%
- WBC [5]: 122.6 x10_2/uL
- KIDNEY_L [5]: 1 g
- KIDNEY_R [5]: 1 g
- KIDNEY_TOTAL [5]: 2 g
- LIVER [5]: 10.8 g
- A/G [5]: 1.2
- ALP [5]: 1957.6 IU/L
- ALT [5]: 43.6 IU/L
- AST [5]: 74.6 IU/L
- BUN [5]: 16.4 mg/dL
- CRE [5]: 0.1 mg/dL
- Ca [5]: 10.7 mg/dL
- Cl [5]: 106 meq/L
- DBIL [5]: 0.002 mg/dL
- GLC [5]: 187.2 mg/dL
- IP [5]: 6.9 mg/dL
- K [5]: 4.4 meq/L
- LDH [5]: 267.2 IU/L
- Na [5]: 142.8 meq/L
- PL [5]: 154 mg/dL
- RALB [5]: 3.2 g/dL
- TBIL [5]: 0.014 mg/dL
- TC [5]: 83.8 mg/dL
- TG [5]: 104 mg/dL
- TP [5]: 5.7 g/dL
- gamma-GTP [5]: 1.2 IU/L
- TERMINAL_BW [6]: 266.3 g
- TERMINAL_BW [7]: 294.8 g
- TERMINAL_BW [8]: 359.6 g
- APTT [6]: 22.4 s
- Bas [6]: 0%
- Eos [6]: 0.8%
- Fbg [6]: 328.2 mg/dL
- Hb [6]: 13.9 g/dL
- Ht [6]: 39.9%
- Lym [6]: 80.4%
- MCH [6]: 21.1 pg
- MCHC [6]: 34.8%
- MCV [6]: 60.5 fL
- Mono [6]: 2.4%
- Neu [6]: 15.2%
- PT [6]: 16.2 s
- Plat [6]: 119.7 x10_4/uL
- RBC [6]: 659.4 x10_4/ul
- Ret [6]: 5.7%
- WBC [6]: 105.4 x10_2/uL
- APTT [7]: 20.2 s
- Bas [7]: 0%
- Eos [7]: 0.4%
- Fbg [7]: 413 mg/dL
- Hb [7]: 14.3 g/dL
- Ht [7]: 40.6%
- Lym [7]: 81.6%
- MCH [7]: 20.1 pg
- MCHC [7]: 35%
- MCV [7]: 57.4 fL
- Mono [7]: 3.8%
- Neu [7]: 12.8%
- PT [7]: 16 s
- Plat [7]: 120.5 x10_4/uL
- RBC [7]: 708 x10_4/ul
- Ret [7]: 3.3%
- WBC [7]: 187.2 x10_2/uL
- APTT [8]: 23 s
- Bas [8]: 0%
- Eos [8]: 0.8%
- Fbg [8]: 332.8 mg/dL
- Hb [8]: 14.1 g/dL
- Ht [8]: 40.2%
- Lym [8]: 84.2%
- MCH [8]: 19 pg
- MCHC [8]: 35.1%
- MCV [8]: 54 fL
- Mono [8]: 1.8%
- Neu [8]: 12.4%
- PT [8]: 15.4 s
- Plat [8]: 102.5 x10_4/uL
- RBC [8]: 745.6 x10_4/ul
- Ret [8]: 4.2%
- WBC [8]: 146.6 x10_2/uL
- KIDNEY_L [6]: 1.1 g
- KIDNEY_R [6]: 1.2 g
- KIDNEY_TOTAL [6]: 2.3 g
- KIDNEY_L [7]: 1.2 g
- KIDNEY_R [7]: 1.2 g
- KIDNEY_TOTAL [7]: 2.4 g
- KIDNEY_L [8]: 1.3 g
- KIDNEY_R [8]: 1.3 g
- KIDNEY_TOTAL [8]: 2.6 g
- LIVER [6]: 12.4 g
- LIVER [7]: 13.6 g
- LIVER [8]: 17.2 g
- A/G [6]: 1.1
- ALP [6]: 1693.8 IU/L
- ALT [6]: 43.2 IU/L
- AST [6]: 75 IU/L
- BUN [6]: 17 mg/dL
- CRE [6]: 0.2 mg/dL
- Ca [6]: 10.7 mg/dL
- Cl [6]: 105.6 meq/L
- DBIL [6]: 0 mg/dL
- GLC [6]: 187 mg/dL
- IP [6]: 7 mg/dL
- K [6]: 4.2 meq/L
- LDH [6]: 248 IU/L
- Na [6]: 142.6 meq/L
- PL [6]: 151.6 mg/dL
- RALB [6]: 3.1 g/dL
- TBIL [6]: 0.008 mg/dL
- TC [6]: 80.8 mg/dL
- TG [6]: 121.8 mg/dL
- TP [6]: 5.8 g/dL
- gamma-GTP [6]: 1.2 IU/L
- A/G [7]: 1
